Measurements published in patent publication US20120035161A1, “Novel Compositions and Methods of Treating Diseases Using the Same” (CORRIDOR PHARMACEUTICALS, INC., priority 2006, published 2012).

Columns and labels:
[1] = system: Serotonin (5-Hydroxytryptamine) 5-HT1, Non-Selective; assay: Assay 271000 radioligand binding, 5-HT1 non-selective; set-up: species or system Wistar Rat
Procedure: (§1) The methods employed in this study have been adapted from the scientific literature to maximize reliability and reproducibility. Reference standards were run as an integral part of each assay to ensure the validity of the results obtained. Assays were performed under conditions as described below. Where presented, IC50 values were determined by a non-linear, least squares regression analysis using the Data Analysis Toolbox (MDL Information Systems, San Leandro, Calif., USA). Where inhibition constants (Ki) are presented, the Ki values were calculated using the equation of Cheng and Prusoff (Cheng, Y., Prusoff, W. H., Biochem. Pharmacol. 22:3099-3108, 1973) using the observed IC50 of the tested compound, the concentration of radioligand employed in the assay, and historical values for the KD of the ligand. Where presented, the Hill coefficient (nu), defining the slope of the competitive binding curve, was calculated using the Data Analysis Toolbox.

[2] = molecular target: T1, Serotonin (5-Hydroxytryptamine) 5-HT1B (Rattus norvegicus, UniProt P28564); assay: Assay 271200 radioligand binding, 5-HT1B; set-up: species or system Wistar Rat
T1 construct: from tissue
Procedure: as §1

TNF-α = assay: Model of LPS-mediated cytokine production, serum TNF-α; assay type: in vivo, CD1:ICR mice; conditions: pre-dose time course, 10 mg/kg, IV or IP
Procedure: (§2) Both ICI-685 and ICI-735 were formulated in water. For the time course study, both drugs were formulated at a concentration of 1 mg/ml and dosed 10 ml/kg to produce a dose of 10 mg/kg. For the dose-response study, drug was formulated at concentrations of 0.05, 0.2 and 0.5 mg/ml and dosed at a volume of 10 ml/kg to produce doses of 0.5, 2 and 5 mg/kg, respectively. Animals were dosed IV or IP.
CD1:ICR mice were obtained from Harlan (Indianapolis, Ind.) at 6 weeks of age. Animals were housed 5 per cage, kept on a 12 hr light dark cycle and fed food and water ad libitum. Animals were tested at 8-10 weeks of age.
(§3) Lipopolysaccharide (heat killed E. coli 0127:B5; Sigma Aldrich) was prepared in distilled water at a concentration of 0.025 mg/ml. LPS was dosed at a volume of 10 ml/kg (IP) to produce a final dose of 0.25 mg/kg (approximately 7.5 μg/mouse). Drugs were dosed prior to LPS administration as indicated elsewhere herein. Blood was collected by retro-orbital eye bleed 90 minutes after LPS administration, Serum was prepared from blood and TNF-α and IL-1β levels were measured by using the OPT-EIA mouse TNF-α and IL-1β ELISA kits (BD Biosciences) as per directions of the manufacturer.
The first study was designed to determine the optimal route of administration and the optimal pre-treatment time. Two pre-dose time course studies were conducted. The first (Study 1A) was conducted with 3 pre-dose time points (2, 6 and 18 hrs). The second was conducted at 0, 1 and 2 hr predose time points. For both studies, drug was dosed IP or IV.
Using data from the first study, a second study was conducted that was designed to measure dose-response activity of each compound. Compounds were tested at doses of […]., 2.0 and 5 mg/kg using the route and pre-treatment time that produced the best activity.
as §2, with “Compounds ICI-715, ICI-824, ICI-953” for “Both ICI-685”, “ICI-954” for “ICI-735”, “study,” for “study, both”, “drugs were” for “drug was”
as §3, with “mg/ml,” for “mg/ml.”, “[…]).” for “μg/mouse).”, “above.” for “elsewhere herein.”, “administration.” for “administration,”
The first study was designed to determine the optimal route of administration and the optimal pre-treatment time. One pre-dose time course was conducted (for all compounds) with compounds administered at 0, 1 and 2 hrs prior to LPS treatment. For both studies, drug was dosed IP or IV. The IP study and IV study were conducted on separate days.
Using data from the first study, a second study was conducted that was designed to measure dose-response activity of each compound. Compounds were tested at doses of 0.5, 2.0 and 5 mg/kg using the route and pre-treatment time that produced the best activity.

[3] = Phospholipidosis assay (LipidTox); assay type: cell-based; conditions: human
Procedure: (§4) More recently, fluorescent dyes have been utilized to assess phospholipidosis in a high throughput manner (Nioi et al., 2007, Toxicol. Sci. 99:162-173). In this assay, HepG2 cells are plated in MEM growth medium and allowed to incubate overnight. Cells are treated with test compounds that have been added to the assay medium (10% fetal bovine serum) containing LipidTox (fluorescent lipophilic dye). After 48 h incubation, cells are fixed and stained with Hoechst. Plates are scanned with an automated fluorescent microscope (Thermo Fisher Cellomics ArrayScan 4.5) and image analysis is used to quantitate cell number and phospholipid accumulation. Compounds are tested in triplicate at multiple concentrations. Three reference compounds, sertraline, perhexyline, and meclizine (high, medium, and low inducers of phospholipidosis, respectively) are included in each assay. The data is expressed as fold induction over background and the % of the positive control (sertraline), which is calculated using the following equation:
(§5) % positive control=100×(RFUcompound−RFUbackground)/(RFUsertaline−RFUbackground),
(§6) where RFU=Relative Fluorescence Unit

HepG2 cells = assay: Phospholipidosis assay (LipidTox); assay type: cell-based; conditions: human, 48 h
Procedure: as §4, §5, §6

T1 sequence (P28564 whole entry): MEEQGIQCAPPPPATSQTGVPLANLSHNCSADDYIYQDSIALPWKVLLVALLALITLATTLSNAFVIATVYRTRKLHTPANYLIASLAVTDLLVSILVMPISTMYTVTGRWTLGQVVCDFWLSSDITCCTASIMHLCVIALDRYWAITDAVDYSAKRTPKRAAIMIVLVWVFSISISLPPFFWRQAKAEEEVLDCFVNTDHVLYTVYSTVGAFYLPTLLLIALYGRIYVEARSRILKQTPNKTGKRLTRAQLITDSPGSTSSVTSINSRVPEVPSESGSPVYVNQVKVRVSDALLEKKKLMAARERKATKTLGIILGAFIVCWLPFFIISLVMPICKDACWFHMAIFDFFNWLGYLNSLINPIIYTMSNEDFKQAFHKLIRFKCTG

NCC(=O)NCCN1CCN(CCCN2c3ccccc3Sc3ccc(C(F)(F)F)cc32)CC1 [ICI-735]
% INHIBITION ([1]; 0.1 μM): 16%
% INHIBITION ([1]; 10 μM): 63%
inhibition at 0.1 µM ([2]; 0.1 μM): 13%
inhibition at 10 µM ([2]; 10 μM): 86%
inhibition of LPS-stimulated TNFα secretion (TNF-α): inhibited
cytotoxicity at 48 h, 1 µM [3]: 0%
cytotoxicity at 48 h, 3 µM [3]: 68%
cytotoxicity at 48 h, 10 µM [3]: 100%
cytotoxicity at 48 h, 30 µM [3]: 100%
fold induction at 48 h, 1 µM [3]: 23
fold induction at 48 h, 3 µM [3]: 6
% Positive Control (HepG2 cells; 1 μM): 43%
% Positive Control (HepG2 cells; 3 μM): 10%
